Source: patent publication US5411733A (priority 1992, dated 1995)
Where “and” joins values, the source holds several entries; their conditions need not be identical. Equal entries are not always repeated. Where two headings read alike, the source gives them in different places.

Assays:
[1] = lung; cited from earlier work
[2] = system: Herpes simplex virus type I (Seibert strain); test: microbe, parasite or virus in culture; assay type: cell-based; conditions: read-out: Plaque Formation Efficiency, Acv
[3] = Acv level in mouse blood (p.o.); assay type: in vivo, DDY male mouse
Experimental: (§1) To a 100 μl aliquot of the serum were added 100 μl of acetonitrile and 20 μl of a 100 mM sodium acetate solution, and the mixture was centrifuged (10000 rpm×10 mins.).
(§2) The sample solution was separated into Acv and adenine by reverse phase liquid chromatography in a usual manner. Each peak area was measured with an automatic integrator, and the Acv content was obtained from the previously prepared calibration curve.
Further, 0.5 ml of an Acv preparation or 0.5 ml of a mixture of Acv and a varied concentration of Cryt. f.# extract solution was orally administered to a 6-week-old DDY male mouse, and the Acv concentration in blood was measured in the same manner as described above. […] Accordingly, the Cryt. f.# extract solution is believed to have antiherpesviral activity by itself.

[4] = Acv concentration in guinea pig blood; assay type: in vivo; conditions: for concentration at 1 h: serum, 200 mg, one hour
Experimental: An Acv suspension or a mixture of Acv and an extract solution of Cryt. f.# was orally or intragastrointestinally administered to a guinea pig. One hour from the administration, blood was taken from the heart, and an inactivated serum was prepared therefrom in the same manner as in Test Example 9.
as §1, §2

Structure (SMILES)	distribution [1]	activity at 0.35 µg/mL [2] [%]	concentration ([3]; Acv (10 mg/kg) p.o., read-out: Acv Blood Level, Mean ± σ) [nM]	concentration ([3]; Acv (100 mg/kg) + 2 mg/ml of Cryt. f.#, p.o., individual samples, listed as Acv, 100 mg/kg, read-out: Acv Blood Level)	concentration ([3]; Acv (100 mg/kg) + 2 mg/ml of Cryt. f.#, p.o., read-out: Acv Blood Level, Mean ± σ) [nM]	concentration ([3]; Acv (100 mg/kg) + 10 mg/ml of Cryt. f.#, p.o., individual samples, listed as Acv, 100 mg/kg, read-out: Acv Blood Level)	concentration ([3]; Acv (100 mg/kg) + 10 mg/ml of Cryt. f.#, p.o., read-out: Acv Blood Level, Mean ± σ) [nM]	concentration ([3]; Acv (100 mg/kg) + 20 mg/ml of Cryt. f.#, p.o., read-out: Acv Blood Level, Mean ± σ) [nM]	effect of Cryt. f.# on Acv concentration in blood ([3]; mouse, Table 13)	effect of Cryt. f.# on Acv absorption ([4]; Table 12)	concentration at 1 h ([4]; Acv (200 mg) + 1 mg/ml of Cryt. f.#, individual samples, read-out: Acv Concentration in Blood) [nM]	concentration at 1 h ([4]; Acv (200 mg) + 1 mg/ml of Cryt. f.#, read-out: Acv Concentration in Blood, Mean ± σ) [nM]	concentration at 1 h ([4]; Acv (200 mg) + 5 mg/ml of Cryt. f.#, individual samples, read-out: Acv Concentration in Blood) [nM]	concentration at 1 h ([4]; Acv (200 mg) + 5 mg/ml of Cryt. f.#, read-out: Acv Concentration in Blood, Mean ± σ) [nM]	concentration at 1 h ([4]; Acv (200 mg) + 20 mg/ml of Cryt. f.#, read-out: Acv Concentration in Blood, Mean ± σ) [nM]	concentration at 1 h ([4]; Acv (200 mg), read-out: Acv Concentration in Blood, Mean ± σ) [nM]
C=CC[C@@H]1/C=C(\C)C[C@H](C)C[C@H](OC)[C@H]2O[C@@](O)(C(=O)C(=O)N3CCCC[C@H]3C(=O)O[C@H](/C(C)=C/[C@@H]3CC[C@@H](O)[C@H](OC)C3)[C@H](C)[C@@H](O)CC1=O)[C@H](C)C[C@@H]2OC [FK 506]	concentrated in the lung															
Nc1nc2c(ncn2COCCO)c(=O)[nH]1 [Acyclovir, acyclovir]		53.6	2280 ± 1490	1700 nM and 1400 nM and 1600 nM and 2500 nM and 4700 nM and 2900 nM and 2000 nM and 2400 nM and 9500 nM and 2300 nM	3100 ± 2430	2300 nM and 1100 nM and 3500 nM and 1600 nM and 1900 nM and 2600 nM and 1500 nM and 5200 nM	2460 ± 1330	2590 ± 1530	no increase in Acv concentration in blood was observed	it is not recognized that the Acv absorption was accelerated	76400	92900 ± 31900	92900	88300 ± 17400	72200 ± 70400	88600 ± 85600
